Values of other authors in publication PMC5516987, “Safety and pharmacodynamics of dalazatide, a Kv1.3 channel inhibitor, in the treatment of plaque psoriasis: A randomized phase 1b trial” (PLoS ONE, 2017).

Key:
[1] = tested on: viral and bacterial infections; settings: chronically treated animals, versus vehicle
Excerpt: Dalazatide (previously referred to as ShK-186 and SL5) is a 37-amino acid synthetic peptide that is a specific inhibitor of the voltage-gated Kv1.3 potassium channel. It is a derivative of ShK, which was originally isolated from the venom of the sea anemone Stichodactyla helianthus. Human T cells rely on two potassium channels, Kv1.3 and KCa3.1 to maintain the calcium signaling required for their activation and differentiation, by maintaining a balance between calcium influx and potassium efflux. Chronically activated memory T cells that rely on upregulation of Kv1.3 expression for ...

[2] = 4-AP and related compounds
Excerpt: One potassium channel blocking drug that has been tested in humans is the nonselective potassium channel inhibitor, 4-aminopyridine (4-AP, fampridine, dalfampridine). Various formulations of 4-AP have been evaluated for their potential to increase nerve conduction and improve function in spinal cord injury, autoimmune diseases involving the nervous system, and diseases of nerve conduction. The most commonly reported adverse events are paresthesia (perioral and digital), nausea, dizziness, headache, and insomnia. Although infrequent, the most serious toxicity reported in patients treated ...

SMILES | Clearance of viral and bacterial infections [1] | Crossing of the blood-brain barrier [2]
C[C@@H]1C[C@H]2[C@@H]3CCC4=CC(=O)C=C[C@]4(C)[C@@]3(F)[C@@H](O)C[C@]2(C)[C@@]1(O)C(=O)CO [dexamethasone] | significantly delayed clearance rate | –
Nc1ccncc1 [4-AP, 4-aminopyridine] | – | readily cross the blood-brain barrier
